From ChEMBL document CHEMBL3992499, “Synthesis, biological evaluation, QSAR and molecular dynamics simulation studies of potential fibroblast growth factor receptor 1 inhibitors for the treatment of gastric cancer” (Eur J Med Chem, 2017)
The source made the active and inactive calls. The calls are words filed in the database; no cut-off is given here.

How the values were obtained:
SGC-7901 [1] = experiment: Induction of apoptosis in human SGC7901 cells assessed as increase in cleaved PARP expression level at 10 uM after 48 hrs by Western blot method; format: functional, cell-based
SGC-7901 [2] = experiment: Induction of apoptosis in human SGC7901 cells assessed as decrease in Bcl2 expression level after 48 hrs by Western blot method; format: functional, cell-based
SGC-7901 [3] = experiment: Induction of apoptosis in human SGC7901 cells assessed as nuclear fragmentation up to 20 uM after 12 hrs by Hoechst 33342 staining based fluorescence microscopic method; format: functional, cell-based
SGC-7901 [4] = experiment: Induction of apoptosis in human SGC7901 cells assessed as increase in cleaved PARP expression level after 48 hrs by Western blot method; format: functional, cell-based
SGC-7901 [5] = experiment: Induction of apoptosis in human SGC7901 cells assessed as downregulation of Cyclin D1 expression by western blot method; format: functional, cell-based
SGC-7901 [6] = experiment: Induction of apoptosis in human SGC7901 cells assessed as decrease in Bcl2 expression level at 10 uM after 48 hrs by Western blot method; format: functional, cell-based
SGC-7901 [7] = experiment: Cell cycle arrest in human SGC7901 cells assessed as accumulation at G0/G1 phase after 8 hrs by propidium iodide staining based flow cytometry; format: functional
SGC-7901 [8] = experiment: Antiproliferative activity against human SGC7901 cells after 72 hrs by MTT assay; conditions: SGC-7901, 72 h
BGC-823 = experiment: Antiproliferative activity against human BGC823 cells after 72 hrs by MTT assay; conditions: BGC-823, 72 h
SGC-7901 [9] = experiment: Cell cycle arrest in human SGC7901 cells assessed as reduction in G2/M phase up to 20 uM after 8 hrs by propidium iodide staining based flow cytometry; format: functional
SGC-7901 [10] = experiment: Induction of apoptosis in human SGC7901 cells assessed as chromatin condensation after 12 hrs by Hoechst 33342 staining based fluorescence microscopic method; format: functional, cell-based
MGC-803 = experiment: Antiproliferative activity against human MGC803 cells after 72 hrs by MTT assay; conditions: MGC-803, 72 h

| Compound | Activity (SGC-7901 [1]) | Activity (SGC-7901 [2]) | Activity (SGC-7901 [3]) | Activity (SGC-7901 [4]) | Activity (SGC-7901 [5]) | Activity (SGC-7901 [6]) | Activity (SGC-7901 [7]) | IC50 (SGC-7901 [8]) | IC50 (BGC-823) | Activity (SGC-7901 [9]) | Activity (SGC-7901 [10]) | IC50 (MGC-803) |
| --- | --- | --- | --- | --- | --- | --- | --- | --- | --- | --- | --- | --- |
| CCN(CC)c1ccc(/C=C/C(=O)/C=C/c2ccc(O)c(OC)c2)cc1 | Active | Dose-dependent effect | Active | Dose-dependent effect | Dose-dependent effect | Active | Dose-dependent effect | 8.2 µM | 2.5 µM | Active | Dose-dependent effect | 2.1 µM |
| COc1cc(/C=C/C(=O)/C=C/c2ccc(N3CCCC3)cc2)ccc1O |  |  |  |  |  |  |  | 8.2 µM | 21.2 µM |  |  | 12.3 µM |
| COc1cc(/C=C2\CC/C(=C\c3ccc(OC(=O)C(C)C)c(OC)c3)C2=O)ccc1OC(=O)C(C)C |  |  |  |  |  |  |  | 5.7 µM | 10.1 µM |  |  | 5 µM |
| COc1cc(/C=C2\CCC/C(=C\c3ccc(N4CCCCC4)cc3)C2=O)ccc1OC(=O)C(C)C |  |  |  |  |  |  |  | 18.8 µM | 31.5 µM |  |  | 11.8 µM |
| COc1cc(/C=C2\CC/C(=C\c3c[nH]c4ccc(Br)cc34)C2=O)ccc1O | Active | Dose-dependent effect | Active | Dose-dependent effect | Dose-dependent effect | Active | Dose-dependent effect | 9.6 µM | 2 µM | Active | Dose-dependent effect | 2.6 µM |
| CC(Cc1ccc(O)c(O)c1)C(C)Cc1ccc(O)c(O)c1 (configuration not stated) [NORDIHYDROGUAIARETIC ACID] |  |  |  |  |  |  |  | > 60 µM | > 60 µM |  |  | 45.8 µM |
| COc1cc(CCc2cc(NC(=O)c3ccc(N4C[C@@H](C)N[C@@H](C)C4)cc3)n[nH]2)cc(OC)c1 [FEXAGRATINIB] |  |  |  |  |  |  |  | 2.8 µM | 7.9 µM |  |  | 6.2 µM |
| CCC(=O)Oc1ccc(/C=C2\CC/C(=C\c3ccc(OC(=O)CC)c(OC)c3)C2=O)cc1OC |  |  |  |  |  |  |  | 4.7 µM | 11.9 µM |  |  | 8.3 µM |
